Results reported in patent publication US20130178441A1, “Methods for Extending Progression-Free Survival using 10-Propargyl-10-Deazaaminopterin” (ALLOS THERAPEUTICS, INC., priority 2010, published 2013).
Values joined by “and” are separate entries in the source; they are usually repeats but may differ in a detail not shown here. Equal values may be shown once. Marks after values point to notes of the source that are not given here.

Key:
[1] = system: relapsed or refractory peripheral T-cell lymphoma (PTCL); experiment: PROPEL (PDX-008) pivotal trial of pralatrexate, overall population (N=109); type: in vivo, human
Description: Pralatrexate was approved under the provisions of accelerated approval is the United States for the treatment of patients with relapsed/refractory PTCL based on the results of the pivotal trial PROPEL (Pralatrexate in Patients with Relapsed Or Refractory Peripheral T-cell Lymphoma). The primary endpoint, objective response rate (ORR) by independent central review using International Workshop Criteria, was 29% (32/109), including 11% complete response/complete response unconfirmed (CR/CRu) with a median duration of response of 10.1 months. The ORR by investigator assessment was 39% (43/109), including 18% CR/CRu.
(§1) The prognosis of aggressive PTCL is dismal. Investigators have developed salvage regimens attempting to improve outcomes for patients with relapsed or refractory disease. One such regimen frequently used is ifosfamide, carboplatin, and etoposide (ICE) or ICE-based regimens (eg, and rituximab-ICE [RICE] and dexamethasome-ICE [DICE]). These regimens can have response rates approaching 70% and patients may proceed to a stem cell transplant, yet most patients tend to relapse quickly (Horwitz et al Blood 2005; 106:a2679). Thus, optimal approaches for patients with relapsed or refractory disease are needed, and agents based on a unique mechanism of action warrant study. This analysis was conducted to determine if pralatrexate offered a beneficial treatment option for patients after treatment with an ICE/RICE/DICE regimen. Methods: Pralatrexate was administered via intravenous push over 3 to 5 minutes at 30 mg/m^2/week for six weeks in 7-week cycles with concurrent 1 mg vitamin B12 intramuscular every 8 to 10 weeks and folic acid 1.0 to 1.25 mg by mouth once daily. 109 patients were treated with pralatrexate in the PROPEL study. All patients in the PROPEL study had received at least 1 prior therapy for PTCL. A subset of 20 patients had received ICE, RICE or DICE at some point prior to treatment with pralatrexate. The efficacy in these patients was compared to the remainder of the patient population who had not received ICE/RICE/DICE as a therapy for PTCL prior to pralatrexate (n=89). The patient population that previously received an ICE-based regimen was heavily pretreated with am edian of 3 prior systemic regimens (range, 2-11). The median age was 45 years, a younger patient population compared with the overall PROPEL population (59 years).
The pivotal PROPEL study of pralatrexate (FOLOTYN®) in patients with relapsed or refractory PTCL reported a rapid response to treatment in a heavily pretreated patient population. The majority of patients (63% of responders) responded by their first assessment at 7 weeks (the end of cycle 1). The present analysis assessed if there were any unique characteristics of patients who were unable to complete the first cycle of therapy and to assess the outcomes of patients who received ≧1 or ≧2 cycles of pralatrexate. Pralatrexate, a folate analog targeting dihydrofolate reductase, was approved in the United States for treatment of relapsed or refractory PTCL based on the PROPEL study. Methods: In PROPEL, patients received 30 mg/m^2 pralatrexate once weekly for 6 weeks in successive 7-week cycles. […] Cycle completion was determined receiving ≧1 dose in the following cycle. Thus, the subgroup of patients who completed ≧1 (n=64) includes those patients who only completed 1 cycle+the 43 who completed ≧2 cycles of treatment. […] However, the patients not completing cycle lwere more likely to have the angioimmunoblastic subtype (20% vs 6%). Patients in each subgroup received a median of 3 prior treatment regimens.

relapsed/refractory PTCL = experiment: PROPEL subset analysis: patients previously treated with ICE-based regimens (N=20) vs other patients (n=89); type: in vivo, human
Description: as §1
ORR, duration of response, and progression-free survival (PFS) by independent central review and investigator assessment, and OS, are presented in Table 6. Details of the patients who responded to pralatrexate according to assessment by independent central review are provided in Table 7.

[2] = 20 patients with prior ICE/RICE/DICE
[3] = individual responders previously treated with ICE (N=8), central review, some values censored
[4] = of the 8 patients who did not respond to ICE as most recent therapy
[5] = prior ICE-based regimen, N=20, independent central review
[6] = prior ICE-based regimen, N=20, independent central review, Kaplan-Meier
[7] = prior ICE-based regimen, N=20, investigator assessment
[8] = prior ICE-based regimen, N=20, investigator assessment, Kaplan-Meier

C#CCC(Cc1cnc2nc(N)nc(N)c2n1)c1ccc(C(=O)N[C@@H](CCC(=O)O)C(=O)O)cc1 (mixture of isomers) [Pralatrexate, (2S)-2-[[4-[(1RS)-1-[(2,4-diaminopteridin-6-yl)methyl]but-3-ynyl]benzoyl]amino]pentanedioic acid]
Responders who responded by their first assessment at 7 weeks (end of cycle 1) ([1]; % of responders): 63%
CR/CRu (complete response/complete response unconfirmed) by independent central review ([1]; all 109 patients): 11%
CR/CRu by investigator assessment ([1]; all 109 patients): 18%
Median duration of PFS by central review ([1]; all 109 patients): 3.5 months
Median duration of PFS by investigator assessment ([1]; all 109 patients): 4.0 months
Median duration of response by central review ([1]; all 109 patients): 10.1 months
Median duration of response by investigator assessment ([1]; all 109 patients): 8.1 months
ORR by investigator assessment ([1]; all 109 patients): 39%
Objective response rate (ORR) by independent central review using International Workshop Criteria ([1]; all 109 patients): 29%
CR/CRu based on investigators assessment (relapsed/refractory PTCL; [2]): 25%
Complete responses [CR] by independent central review (relapsed/refractory PTCL; [2]): 15%
ORR based on investigators assessment (relapsed/refractory PTCL; [2]): 40%
Overall response rate (ORR) by independent central review (relapsed/refractory PTCL; [2]): 40%
Median PFS in the 20 patients relative to that of the other patients (relapsed/refractory PTCL; central review): over 3 times
Duration of Response (months) (relapsed/refractory PTCL; [3]): 17.1^b months and 13.1 months and 10.1 months and 3.4 months and 1.6 months
PFS (months) (relapsed/refractory PTCL; [3]): 14.4 months and 17.8 months and 4.8 months and 3.0 months
Duration of Response (months) (relapsed/refractory PTCL; individual responders previously treated with ICE (N=8), central review, some values censored, listed as pralatrexate): 1.3 months and 4.9 months
CR to pralatrexate (relapsed/refractory PTCL; [4]): 2 patients
PR to pralatrexate (relapsed/refractory PTCL; [4]): 1 patients
Patients who responded to pralatrexate (relapsed/refractory PTCL; [4]): 3 patients
Patients who responded to pralatrexate (relapsed/refractory PTCL; of the 15 patients who did not have a response to a prior ICE-based regimen): 40%
Patients who proceeded to a stem cell transplant upon attaining a response to pralatrexate (relapsed/refractory PTCL; of the 20 patients with prior ICE/RICE/DICE): Two
CR/CRu based on investigators assessment (relapsed/refractory PTCL; other 89 patients): 17%
CR/CRu by independent central review (relapsed/refractory PTCL; other 89 patients): 10%
Median PFS according to central review (relapsed/refractory PTCL; other 89 patients): 3.3 months
Median duration of response by central review (relapsed/refractory PTCL; other 89 patients): 9.4 months
Median duration of response per investigator assessment (relapsed/refractory PTCL; other 89 patients): 6.8 months
ORR based on investigators assessment (relapsed/refractory PTCL; other 89 patients): 39%
ORR by independent central review (relapsed/refractory PTCL; other 89 patients (no prior ICE/RICE/DICE)): 27%
OS, Median, months (95% CI) (relapsed/refractory PTCL; prior ICE-based regimen, N=20, Kaplan-Meier): 12.0 (5.2, 23.4) months
Duration of response, Range (relapsed/refractory PTCL; [5]): 1.3-22.1 months
Tumor response: CR (relapsed/refractory PTCL; [5]): 3 (15) n (%)
Tumor response: ORR (CR + PR) (relapsed/refractory PTCL; [5]): 8 (40) n (%)
Tumor response: PD (relapsed/refractory PTCL; [5]): 4 (20) n (%)
Tumor response: PR (relapsed/refractory PTCL; [5]): 5 (25) n (%)
Tumor response: SD (relapsed/refractory PTCL; [5]): 2 (10) n (%)
Duration of response, Median, months (95% CI) (relapsed/refractory PTCL; [6]): 13.1 months and 13.1 (3.4, NA) months
PFS, Median, months (95% CI) (relapsed/refractory PTCL; [6]): 14.4 months and 14.4 (1.5, NA) months
Tumor response: CR (relapsed/refractory PTCL; [7]): 5 (25) n (%)
Tumor response: NA (not assessable) (relapsed/refractory PTCL; [7]): 1 (5) n (%)
Tumor response: ORR (CR + PR) (relapsed/refractory PTCL; [7]): 8 (40) n (%)
Tumor response: PD (relapsed/refractory PTCL; [7]): 6 (30) n (%)
Tumor response: PR (relapsed/refractory PTCL; [7]): 3 (15) n (%)
Tumor response: SD (relapsed/refractory PTCL; [7]): 5 (25) n (%)
Duration of response, Median, months (95% CI) (relapsed/refractory PTCL; [8]): 16.2 months and 16.2 (3.4, NA) months
PFS, Median, months (95% CI) (relapsed/refractory PTCL; [8]): 4.8 (2.5, 14.4) months
OS, Range (relapsed/refractory PTCL; prior ICE-based regimen, N=20, survival follow up ended at two years): 1.1-24.0^d months
